Source: US20130095151A1, “BROAD SPECTRUM SUNSCREEN COMPOSITION COMPRISING 2 HYDROXY SULFOBETAINE OF CINNAMIDOALKYL AMINE” (GALAXY SURFACTANTS LTD., priority 2010, published 2013)

Assays:
[1] = free acid, not neutralised; cited from earlier work
[2] = photostability: remaining content of AVB after exposing the formulas to sunlight, UV spectrophotometer vs unexposed control; assay type: physicochemical; settings: in sunscreen creams with AVB/OCN
Method: Furthermore, the formulas I to 4 above where tested for photostability by exposing the formulas to sunlight for three hours (10 am to 1 pm, 2 Jun. 2011, Navi Mumbai, INDIA). The remaining content of AVB was measured using UV Spectrophotometer and compared to unexposed control.

| photostability compared to PBSA and OMC [2] | Compound | solubility in water [1] [% w/w] |
| --- | --- | --- |
| – | O=S(=O)(O)c1ccc2[nH]c(-c3ccccc3)nc2c1 [Phenylbenzimidazole Sulfonic Acid] | 0.25 |
| enhanced photostability | COc1ccc(/C=C/C(=O)NCCC[N+](C)(C)CC(O)CS(=O)(=O)[O-])cc1 (centres unmarked) [SunBeat, 3-(N-p-Methoxycinnamidopropyl, N,N-Dimethyl Ammonium)-2-Hydroxypropane-1-Sulphonate] | – |
